According to US12663426B2, “Method and composition for measurement of nitric oxide” (The University of Chicago, priority 2019, dated 2026):

These compounds were tested on T-47D cells (assay: Golgi fragmentation (Giantin/GM130 immunofluorescence)). Conditions: not given.
Type: cell-based
Method: (§1) Immunofluorescence staining. Cells were cultured on a glass bottom 3.5 cm imaging dish to reach 60% confluency. […] Treated cells were then washed three times with 1× PBS (pH 7.4) and fixed using, 4% paraformaldehyde at room temperature (RT, 15 min). Subsequently, cells were permeabilized using 0.25% triton X-100 followed by blocking using 3% BSA in 1× PBS. Cells were then incubated with indicated primary antibodies—mouse monoclonal anti-eNOS antibody (SantaCruz Cat #sc-376751), Polyclonal Anti-S-nitrosocysteine antibody (Abeam Cat #ab94930 or Abeam Cat #ab50185), Rabbit polyclonal Anti-Giantin antibody (Abeam Cat #ab24586) or Mouse monoclonal Anti-GM130 antibody (BD Biosciences Cat #610822) in blocking buffer (3% BSA in 1× 4 PBS) for 1 hour at RT. Cells were then washed for 5 min with 1× PBS (3×). Respective secondary antibodies conjugated with either Alexafluor 488 or Alexafluor 647 were added to the cells and incubated for 1 hr at RT. Cells were washed again to remove excess secondary antibody using 1× PBS for 5 min (3×). Hoechst 33342 (5 μM) was added 10 min prior to imaging to stain nuclear DNA. Cells were then imaged on a Leica SP8 laser scanning confocal microscope using excitation wavelengths 405 nm (Hoechst), 488 nm (AlexaFluor 488) and 647 nm (AlexaFluor 647). Images were processed using Fiji and maximum z-projection of 2-3 z-planes are used in representative images.
Golgi fragmentation was quantified with immunofluorescence images of Golgi structural protein Giantin. Merge images of Hoechst and Giantin allowed identification of cell numbers and enumeration of Golgi fragments per cell (≤3 Golgi fragments per cell was considered intact Golgi) (Lee, J. E. et al. Dependence of Golgi apparatus integrity on nitric oxide in vascular cells: implications in pulmonary arterial hypertension. Am. J. Physiol. Heart Circ. Physiol. 300, H1141-58 (2011)). […]
Small molecule inhibitors were then screened to identify the molecular pathway by which NOS3 inhibition induces Golgi fragmentation. This is based on the rationale that inhibiting a protein on this pathway should also block methylene blue-induced Golgi fragmentation. […] A range of small molecule inhibitors against kinases that have previously ascribed roles in Golgi fragmentation were then used. DNA-PK with NU7441 was ruled out (Farber-Katz, S. E. et al. DNA damage triggers Golgi dispersal via DNA-PK and GOLPH3. Cell 156, 413-427 (2014)). Compounds containing an indirubin core have broad specificity for Cyclin dependent kinases (CDKs) and Src kinases. […] CDK1, CDK2 and CDK5 were ruled out, using (R)-Roscovitine (Rosco).

Compound | effect on methylene blue (MB)-induced Golgi fragmentation | Golgi fragmentation by treatment alone | reduction of MB-induced Golgi fragmentation [%]
CC[C@H](CO)Nc1nc(NCc2ccccc2)c2ncn(C(C)C)c2n1 [(R)-Roscovitine] | ruled out | – | –
COC(=O)[C@@H](N)CCCNC(=N)N[N+](=O)[O-] [L-NAME, L-N^G-Nitroarginine methyl ester] | – | underwent fragmentation | –
C/C1=C/C(=O)O[C@@H]2C[C@@H](CC[C@H](C)/C=C\CC1)O[C@@](O)([C@@H]1CSC(=O)N1)C2 [Latrunculin B] | completely blocked | – | –
CN(C)c1ccc2nc3ccc(=[N+](C)C)cc-3sc2c1 [Methylene Blue] | – | fragmented morphology | –
O=c1cc(N2CCOCC2)oc2c(-c3cccc4c3sc3ccccc34)cccc12 [NU7441] | ruled out | – | –
CC1(C)N([O])C(c2ccccc2)=[N+]([O-])C1(C)C [PTIO, 2-phenyl-4,4,5,5-tetramethylimidazoline-1-oxyl 3-oxide] | – | fragmented morphology | –
CN(C)S(=O)(=O)c1ccc2c(c1)/C(=C/c1cc3c([nH]1)CCCC3)C(=O)N2 [SU6656] | – | – | ~50
CC1(C)CC(O)CC(C)(C)N1[O] [TEMPOL] | – | none of these treatments fragmented the Golgi | –
C[C@@H](N)[C@H]1CC[C@H](C(=O)Nc2ccncc2)CC1 [Y-27632] | not mediated by apoptosis | – | –
O=C1Nc2ccccc2/C1=C1/Nc2ccccc2/C1=N\O [indirubin-3′-monoxime] | completely blocked | – | –
O=C1Nc2ccccc2/C1=C1/Nc2ccccc2/C1=N\OCC(O)CO (stereo not drawn) [indirubin-e804] | completely blocked | – | –
Hemoglobin | – | fragmented morphology | –

These compounds were tested on S-nitrosylation at the Golgi (assay: Anti-S-nitrosocysteine immunostaining of T-47D cells). Conditions: not given.
Type: cell-based
Method: as §1
In order to address the significance of the […] population of NOS3 at the TGN, T-47D cells were immunostained using an antibody specific to S-nitrosocysteine.
Similar observations were made in MCF-7 cells upon NO depletion (FIG. 23). These studies reveal that the Golgi is a cellular hot-spot for 5-nitrosylation of proteins by NOS3, where it is essential for the maintenance of Golgi architecture in breast cancer cells. […] In addition to Golgi fragmentation, NO scavenging also hampered cell growth by inducing cell sensescence (FIG. 24).

Compound | S-nitrosylation at the Golgi
COC(=O)[C@@H](N)CCCNC(=N)N[N+](=O)[O-] [L-NAME, L-N^G-Nitroarginine methyl ester] | dramatically reduced
CC1(C)N([O])C(c2ccccc2)=[N+]([O-])C1(C)C [PTIO, 2-phenyl-4,4,5,5-tetramethylimidazoline-1-oxyl 3-oxide] | greatly diminished

What follows are compounds tested against T1, NOS3 (Homo sapiens, UniProt P29474) (assay: Steady state NOS3 activity imaging at plasma membrane and TGN with NOckout probes). Conditions: T-47D cells.
T1 construct: endogenous, basal NOS3 activity was estimated at each of these sub-cellular locations in T-47D cells; endogenous in cells; host or cells: T-47D cells
Type: cell-based
Method: Image acquisition. T-47D cells were maintained as mentioned above in the cell culture section. Cells were washed twice with Hank's balanced salt solution (HBSS) before incubating them with 500 nM NOckout^TGN for 30 min or 500 nM NOckout^PM for 10 min at 37° C. followed by 3 washes with HBSS solution to remove any unloaded sensors. For steady state imaging (FIG. 1), cells were treated with indicated agonists or antagonists for 1 hr in complete RPMI-1640 medium. Care was taken not to exceed the final concentration of DMSO>1% at any time of the experiment. Additionally, 1% DMSO was used as a negative control in untreated (Basal) cells. […] The cells are then washed and imaged (FIG. 1f).
For simultaneous imaging cells were treated with 500 nM NOckout^TGN for 30 min where last 10 min cells were co-incubated with 500 nM NOckout^PM. In order to achieve lowest signal (PTIO, FIG. 1e-f) or to achieve bleaching profile (PTIO, FIG. 3e) cells were pre-treated with 500 μM PTIO for 15 minutes. Images were captured on a Laser scanning confocal Leica SP8 microscope using 63×, 1.4UV NA objective. Desired excitation and emission wavelengths was achieved using white light laser along with notch filters and acousto-optical tunable filters. A488, DAR and A647 were imaged using the following settings—Alexa488 (λex=488 nm, λem=500 nm to 540 nm), DAR (λex=554 nm, λem=565 nm to 610 nm) and Alexa647 (λex=647 nm, λem=665 nm to 710 nm).
Image analysis was performed using Fiji (Schindelin, J. et al. Fiji: an open-source platform for biological-image analysis. Nat Methods 9, 676-682 (2012)). Auto-fluorescence was subtracted from images for ratiometric analysis. For representation, images were further processed by smooth and despeckle functions. In order to present G/B or G/R images, a mask for each image was constructed using Otsu thresholding method, and mask-multiplied images were used for division. The ROI plugin in Fiji was used to select either TGN (Alexa647 channel) or PM (Alexa488 channel) and these ROIs were recalled in DAR channel to measure intensity in all three channels.
Next, endogenous, basal NOS3 activity was estimated at each of these sub-cellular locations in T-47D cells without explicitly activating NOS3. To do this, the ratiometric NOckout^PM response, i.e. the G/B ratio, was first measured under conditions where cells were depleted of NO using the NO scavenger 2-phenyl-4,4,5,5-tetramethylimidazoline-1-oxyl 3-oxide (PTIO, 300 μM) (Goldstein, S., Russo, A. & Samuni, A. Reactions of PTIO and carboxy-PTIO with *NO, *NO2, and O2−*. J Biol. Chem. 278, 50949-50955 (2003)). […] These two extreme cases provide the minimum and maximum G/B signals afforded by NOckout^PM in the cell (FIG. 1e-f). The G/B values under any subsequent condition are normalized to the maximum G/B signal. […]

Compound | G/B and G/R values of NOckout probes (NOS3 activity)
Nc1ncnc2c1ncn2[C@@H]1O[C@H](COP(=O)(O)OP(=O)(O)OP(=O)(O)O)[C@@H](O)[C@H]1O [ATP] | significantly higher G/B and G/R ratios
C[C@]12CC[C@@H]3c4ccc(O)cc4CC[C@H]3[C@@H]1CC[C@@H]2O [E2, 17 β-Estradiol] | selectively activated NOS3 only at the plasma membrane
COC(=O)[C@@H](N)CCCNC(=N)N[N+](=O)[O-] [L-NAME, L-N^G-Nitroarginine methyl ester] | reflected those of PTIO-treated cells

The compounds below were run against T2, murine TLR-9 (Mus musculus, UniProt Q9EQU3) (assay: Endosomal NO in primary mouse microglia with NOckout^mCpG). Conditions: primary microglial cells, NOckout^mCpG 500 nM 120 min, without or with 200 nM BAF.
T2 construct: endogenous in cells; host or cells: primary microglia from C57BL/6 mice
T2 sequence (Q9EQU3 26-1032): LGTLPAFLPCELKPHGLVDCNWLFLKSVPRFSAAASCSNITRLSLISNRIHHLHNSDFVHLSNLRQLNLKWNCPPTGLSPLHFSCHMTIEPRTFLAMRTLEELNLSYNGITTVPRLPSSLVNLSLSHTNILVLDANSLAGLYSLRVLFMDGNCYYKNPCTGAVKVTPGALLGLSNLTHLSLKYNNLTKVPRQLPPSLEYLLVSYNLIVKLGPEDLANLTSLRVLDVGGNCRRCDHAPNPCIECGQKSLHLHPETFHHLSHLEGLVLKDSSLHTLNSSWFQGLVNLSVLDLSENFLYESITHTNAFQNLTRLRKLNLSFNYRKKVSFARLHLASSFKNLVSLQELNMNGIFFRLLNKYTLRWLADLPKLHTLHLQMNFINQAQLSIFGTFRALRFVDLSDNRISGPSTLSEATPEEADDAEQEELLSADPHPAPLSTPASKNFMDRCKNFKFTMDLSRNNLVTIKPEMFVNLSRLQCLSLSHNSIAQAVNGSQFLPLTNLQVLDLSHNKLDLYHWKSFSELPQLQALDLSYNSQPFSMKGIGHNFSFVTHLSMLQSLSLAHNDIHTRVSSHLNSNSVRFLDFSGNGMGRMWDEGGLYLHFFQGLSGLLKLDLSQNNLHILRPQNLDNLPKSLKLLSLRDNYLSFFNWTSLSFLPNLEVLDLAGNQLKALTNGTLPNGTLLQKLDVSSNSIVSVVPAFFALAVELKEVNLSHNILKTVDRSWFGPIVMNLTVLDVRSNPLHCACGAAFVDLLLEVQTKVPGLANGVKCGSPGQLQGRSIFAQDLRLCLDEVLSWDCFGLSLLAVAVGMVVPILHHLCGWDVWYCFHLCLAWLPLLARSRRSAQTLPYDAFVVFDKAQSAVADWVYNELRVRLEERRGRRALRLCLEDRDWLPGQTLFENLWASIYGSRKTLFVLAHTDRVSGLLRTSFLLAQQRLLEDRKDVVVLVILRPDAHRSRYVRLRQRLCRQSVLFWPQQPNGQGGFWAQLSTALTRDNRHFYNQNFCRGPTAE
Type: cell-based
From the text: Image analysis: A MATLAB based program called Findosome was used to calculate the (G/R) values of individual endosomes from the acquired images. Maximum Z-projected images created using Fiji (NIH) were fed to Findosome to pick endosomal compartments as ROI corresponding to individual endosomes based on the A647 channel intensity. For each ROI, the program calculates fluorescence intensities both in the normalizing channel (A647, R) as well as in the DAR (G) channel. The results were exported as an excel file. From the results, (G/R) value for individual endosomes can be calculated. Phagosomal (G/R) values from the zebrafish microglia are calculated using Fiji software. Images were imported to Fiji and maximum Z-projected images were created. ROI were manually drawn around clearly identifiable phagosomes using the normalizing channel A647 intensity. Fluorescence intensities in A647 and DAR channels were calculated. G/R values are either represented as heat map images using Fiji or as bar graph using Origin software. Intracellular measurements of (G/R) values was performed in GFP colocalized microglia. For (G/R) ratio quantification experiments, only those vesicles that are present in both green (G) and red (R) channels were considered. […]

Compound | endosomes with G/R value≥0.45 [%]
CO/C1=C\C(C)=C\[C@@H](C)[C@@H](O)[C@@H](C)C/C(C)=C/C=C/[C@H](OC)[C@@H]([C@@H](C)[C@@H](O)[C@H](C)[C@@]2(O)C[C@@H](O)[C@H](C)[C@@H](C(C)C)O2)OC1=O [BAF] | 50
